How the values were obtained:
[1] = Compound stability in rat liver microsomes; type: in vitro ADME; details: 1 μM
Description: (§1) Human or rat liver microsomes incubations were conducted in duplicate in polypropylene tubes. […] Compounds were dissolved in DMSO and diluted with PBS such that the final concentration of DMSO was 0.05%. The enzymatic reactions were commenced with the addition of protein after a 3 min preincubation and incubated in a water bath open to the air at 37° C. Reactions were terminated at various time points (0, 5, 10, 15, 30, 60 min) by adding equal volume of ice-cold acetonitrile. The samples were stored at −80° C. until LC/MS/MS assays.
(§2) The concentrations of compounds in the incubation mixtures of human (or rat) liver microsomes were determined by a LC/MS/MS method. The ranges of the linearity in the concentration range were determined for each tested compounds.
(§3) A parallel incubation was performed using denatured microsomes as the negative control, and reactions were terminated at various time points (for example, 0, 15, 60 min) after incubation at 37° C.
(§4) Dextromethorphan (70 μM) was selected as the positive control, and reactions were terminated at various time points (0, 5, 10, 15, 30, 60 min) after incubation at 37° C. Both positive and negative control samples were included in each assay to ensure the integrity of the microsomal incubation system.
(§5) Alternatively, the stability of some of the compounds disclosed herein in human (or rat) liver microsomes were also conducted in the following protocol. The incubations were conducted in duplicate in polypropylene tubes. […] Compounds were dissolved in DMSO and diluted with K-buffer such that the final concentration of DMSO was 0.2%. The enzymatic reactions were commenced with the addition of 15 μL of NADPH (final concentration: 2 mM) after 10 min preincubation and incubated in a 37° C. incubator. Reactions were terminated at various time points (0, 15, 30, 60 min) by adding 135 μL acetonitrile (contain IS). Protein is removed by centrifugation with 4,000 rpm, 10 min.
(§6) In the above protocol, ketanserin (1 μM) was selected as the positive control, and reactions were terminated at various time points (0, 15, 30, 60 min) after incubation at 37° C. The positive control sample was included in each assay to ensure the integrity of the microsomal incubation system.
(§7) The concentrations of compounds in liver microsome incubations were plotted as a percentage of the relevant zero time point control for each reaction. The in vivo CLint were extrapolated (ref: Naritomi et al., Prediction of human hepatic clearance from in vivo animal experiments and in vitro metabolic studies with liver microsomes from animals and humans, Drug Metab. Dispos., 2001, 29: 1316-1324.) […]

Colo-205 Tumor Xenograft = assay: Colo-205 tumor xenograft model, tumor growth inhibition; type: in vivo, athymic nude mice; details: Colo-205 xenograft, p.o., 15 days
Description: The efficacy of compounds disclosed herein is evaluated in a standard murine model of tumorigenesis. Human tumor cells (i.e., Colo-205 Tumor Xenograft models) are expended in culture, harvested, and injected subcutaneously onto the rear flank of 6-7 week old female athymic nude mice (BALB/cA nu/nu, Shanghai SLAC Laboratory Animal, Co.) (n=10 for vehicle group, n=8 for each dosing group). When tumor reaches a volume of 100-250 mm^3, animals are randomly divided into vehicle control (for example, 5% PEG400+5% Solutol HS 15 in water or 5% EtOH+5% CremophorEL+1% HCl (11.7%), pH 2.2 in water) and compound groups. Subsequent administration of compound by oral gavage (for example, 6-60 mpk/dose, dissolved in 5% PEG400+5% Solutol HS 15 in water or 5% EtOH+5% CremophorEL+1% HCl (11.7%), pH 2.2 in water) begins anywhere from day 0 to day 15 post tumor cell challenge and generally continues with once a day for the duration of the experiment.
Progression of tumor growth is assessed by tumor volumes and recorded as a function of time. The long (L) and short (W) axes of the subcutaneous tumors are measured with calipers twice weekly, and the tumor volume (TV) calculated as (L×W^2)/2). TGI is calculated from the difference between the median tumor volumes of vehicle-treated and drug-treated mice, expressed as a percentage of the median tumor volume of the vehicle-treated control group, by the following relation:
Initial statistical analysis is done by repeated measures analysis of variance (RMANOVA), Followed by Scheffe post-hoc testing for multiple comparisons. Vehicle alone (2% HPMC+1% Tween-80, or the like) is the negative control.
The compouds described herein were also administrated orally (p.o.) once a day (QD) or (BID) for 15 days in Colo-205 xenograft animal model. At doses of 20 mg/kg, the compouds produced statistically significant inhibition of growth of certain tumors grown subcutaneously in athymic nude mice.

[2] = Compound stability in human liver microsomes; type: in vitro ADME; details: 1 μM
Description: as §1, §2, §3, §4, §5, §6, §7

[3] = Pharmacokinetics in SD rats; type: in vivo; details: vemurafenib dosed
Excerpt: (§8) Compounds disclosed herein are prodrugs. […] However, the prodrug compounds are modified in vivo to produce a parent compound that has known inhibitory activities against certain protein kinases. Kinase inhibition activity of prodrug compounds is established by quantitating the blood or plasma levels of parent compound after prodrug administration. In vivo blood or plasma levels are reported as Cmax (maximum blood or plasma concentration) and AUC (area under curve from zero to a certain period of time or infinity, a measure of total drug exposure). Methods of measuring Cmax, AUC and other pharmacokinetic parameters in dogs and rats are provided in Example C.
(§9) The LC/MS/MS system used in the analysis consists of an Agilent 1200 Series vacuum degasser, binary pump, well-plate autosampler, thermostated column compartment, the Agilent G6430 TripleQuadrupole Mass Spectrometer with an electrospray ionization (ESI) source. Quantitative analysis was carried out using MRM mode. The parameters for MRM transitions are in the Table A.
(§10) An Agilent XDB-C18, 2.1×30 mm, 3.5 μM column was used for the analysis. 5 μL of the samples were injected. Analysis condition: The mobile phase was 0.1% formic acid in water (A) and 0.1% formic acid in methanol (B). The flow rate was 0.4 mL/min. And the gradient of Mobile phase was in the Table B.
(§11) Alternatively, an Agilent 6330 series LC/MS/MS spectrometer equipped with G1312A binary pumps, a G1367A autosampler and a G1314C UV detector was used in the analysis. An ESI source was used on the LC/MS/MS spectrometer. The analysis was done in positive ion mode as appropriate and the MRM transition for each analyte was optimized using standard solution. A Capcell MP-C18 100×4.6 mm I.D., […] column (Phenomenex, Torrance, Calif., USA) was used during the analysis. The mobile phase was 5 mM ammonia acetate, 0.1% MeOH in water (A): 5 mM ammonia acetate, 0.1% MeOH in acetonitrile (B) (70:30, v/v). The flow rate was 0.6 mL/min. Column was maintained at ambient temperature. 20 μL of the samples were injected.
(§12) Selected compounds of the invention and Vemurafenib were assessed in pharmacokinetic studies in mice, rats, dogs or monkeys. The compounds were administered as a water solution, 2% HPMC+1% TWEEN® 80 in water solution, 5% DMSO+5% solutol in saline, 4% MC or capsule. For the intravenous administration, the animals were generally given at 1 or 2 mg/kg dose. For the oral (p.o.) dosing, mice and rats were generally given 5 or 10 mg/kg dose, and dogs and monkeys were generally given 7-100 mg/kg dose. The blood samples (0.3 mL) were drawn at 0.25, 0.5, 1.0, 2.0, 3.0, 4.0, 6.0, 8.0, 12 and 24 h time points or 0.083, 0.25, 0.5, 1.0, 2.0, 4.0, 6.0, 8.0 and 24 h time points and centrifuged at 3,000 or 4000 rpm for 2 to 10 min. The plasma solutions are collected and stored at −20° C. or −70° C. before analyzed by LC/MS/MS as described above.

[4] = cited from earlier work
[5] = Pharmacokinetics in beagle dogs; type: in vivo; details: vemurafenib dosed
Excerpt: as §8, §9, §10, §11, §12

B-Raf = B-Raf V600E vs wild-type, purified kinase assays; cited from earlier work
[6] = Sprague-Dawley, rat, plasma, IV 1 mg/kg
[7] = Sprague-Dawley, rat, plasma, PO 10 mg/kg

## CCCS(=O)(=O)Nc1ccc(F)c(C(=O)c2cn(COP(=O)([O-])[O-])c3ncc(-c4ccc(Cl)cc4)cc23)c1F.[Na+].[Na+] [Ex. 25, sodium (5-(4-chlorophenyl)-3-(2,6-difluoro-3-(propylsulfonamido)benzoyl)-1H-pyrrolo[2,3-b]pyridin-1-yl)methyl phosphate]
[1]
  Rat T1/2: ∞
Colo-205 Tumor Xenograft; 6 mg/kg/qd
  TGI % (on the last day of dosing): 41%
Colo-205 Tumor Xenograft; 20 mg/kg/bid
  TGI % (on the last day of dosing): 95%
Colo-205 Tumor Xenograft; 20 mg/kg/qd
  TGI % (on the last day of dosing): 59%
Colo-205 Tumor Xenograft; 60 mg/kg/qd
  TGI % (on the last day of dosing): 108%
[2]
  Human T1/2: ∞

## CCCS(=O)(=O)Nc1ccc(F)c(C(=O)c2cn(C(C)OP(=O)([O-])[O-])c3ncc(-c4ccc(Cl)cc4)cc23)c1F.[Na+].[Na+] (centres unmarked) [Ex. 32, sodium 1-(5-(4-chlorophenyl)-3-(2,6-difluoro-3-(propylsulfonamido)benzoyl)-1H-pyrrolo[2,3-b]pyridin-1-yl)ethyl phosphate]
[1]
  Rat T1/2: ∞
Colo-205 Tumor Xenograft; 6 mg/kg/qd
  TGI % (on the last day of dosing): 29%
Colo-205 Tumor Xenograft; 20 mg/kg/bid
  TGI % (on the last day of dosing): 102%
Colo-205 Tumor Xenograft; 20 mg/kg/qd
  TGI % (on the last day of dosing): 68%
Colo-205 Tumor Xenograft; 60 mg/kg/qd
  TGI % (on the last day of dosing): 110%
[2]
  Human T1/2: ∞

## CCCS(=O)(=O)Nc1ccc(F)c(C(=O)c2c[nH]c3ncc(-c4ccc(Cl)cc4)cc23)c1F [Vemurafenib, N-(3-(5-(4-chlorophenyl)-1H-pyrrolo[2,3-b]pyridine-3-carbonyl)-2,4-difluorophenyl)propane-1-sulfonamide]
[3]; PO 10 mg/kg
  F: 104%
[3]; [6]
  AUC(0-t): 25200 ng·h/mL
  half-life: 3.75 h
[3]; [7]
  AUC(0-t): 261000 ng·h/mL
  Cmax: 25400 ng/mL
  Tmax: 4 h
  half-life: 3.54 h
[4]
  solubility in water: low solubility in water
Colo-205 Tumor Xenograft; 6 mg/kg/qd
  TGI % (on the last day of dosing): 33%
Colo-205 Tumor Xenograft; 20 mg/kg/bid
  TGI % (on the last day of dosing): 101%
Colo-205 Tumor Xenograft; 20 mg/kg/qd
  TGI % (on the last day of dosing): 73%
Colo-205 Tumor Xenograft; 60 mg/kg/qd
  TGI % (on the last day of dosing): 104%
[5]; PO 10 mg/kg
  F: 33.4%
[5]; dog, plasma, IV 1 mg/kg
  AUC(0-t): 4880 ng·h/mL
  half-life: 1.59 h
[5]; dog, plasma, PO 10 mg/kg
  AUC(0-t): 16500 ng·h/mL
  Cmax: 2150 ng/mL
  Tmax: 2 h
  half-life: 3.9 h
B-Raf
  selectivity for the V600E mutation over the wild-type kinase: 3 fold

— US9399639B2, “Substituted azaindole compounds, salts, pharmaceutical compositions thereof and methods of use” (Calitor Sciences, LLC, priority 2012, dated 2016)
